Measured values published in ChEMBL document CHEMBL4513161, “CO-ADD screening of MMV (CH) - Pandemic Response Box” (2021).
In brackets after ≈: the same amount, converted by molar mass.

How the values were obtained:
Pseudomonas aeruginosa [1] = assay: Antibacterial activity against Pseudomonas aeruginosa PAO397 [PAO1 d(mexAB-oprM) d(mexCD-oprJ) d(mexEF-oprN) d(mexJKL) d(mexXY) d(opmH)] (CO-ADD:GN_211); MIC in CAMBH media using NBS plates, by OD(600); format: functional; conditions: ASSAY_TEST Inhibition of Bacterial Growth, detection method Absorption (OD600), MEDIA CAMHB, plate type 384well, CORNING #3640, time 18 hr
Candida albicans = assay: microbe, parasite or virus in culture; conditions: ATCC 90028, ASSAY_TEST Inhibition of Fungal Growth, detection method Absorption (OD530), plate type 384well, NBS, CORNING #3640
Description: Antifungal activity against Candida albicans ATCC 90028 (CO-ADD:FG_001); MIC in YNB media using NBS plates, by OD630

HEK293 = assay: cells; format: functional, Homo sapiens, ATCC CRL1573; conditions: Homo sapiens, ATCC CRL1573, HEK293; ASSAY_TEST Inhibition of Cell Viability; detection method Resazurin; Fluorescence (ex560/em590); MEDIA DMEM with 10% FBS; plate type 384well; TC; CORNING #3712; time 18 hr; read-out: CC50
Pseudomonas aeruginosa [2] = assay: microbe, parasite or virus in culture; conditions: ATCC 27853, 18 h, ASSAY_TEST Inhibition of Bacterial Growth, detection method Absorption (OD600), MEDIA CAMHB, plate type 384well, NBS, CORNING #3640
Description: Antibacterial activity against Pseudomonas aeruginosa ATCC 27853 (CO-ADD:GN_042); MIC in CAMBH media using NBS plates, by OD(600)

Escherichia coli = assay: microbe, parasite or virus in culture; conditions: ATCC 25922, 18 h, ASSAY_TEST Inhibition of Bacterial Growth, detection method Absorption (OD600), MEDIA CAMHB, plate type 384well, NBS, CORNING #3640
Description: Antibacterial activity against Escherichia coli ATCC 25922 (CO-ADD:GN_001); MIC in CAMBH media using NBS plates, by OD(600)

Staphylococcus aureus = assay: microbe, parasite or virus in culture; conditions: ATCC 43300, 18 h, ASSAY_TEST Inhibition of Bacterial Growth, detection method Absorption (OD600), MEDIA CAMHB, plate type 384well, NBS, CORNING #3640
Description: Antibacterial activity against Staphylococcus aureus MRSA ATCC 43300 (CO-ADD:GP_020); MIC in CAMBH media, using NBS plates, by OD(600)

Klebsiella pneumoniae = assay: microbe, parasite or virus in culture; conditions: ATCC 700603, 18 h, ASSAY_TEST Inhibition of Bacterial Growth, detection method Absorption (OD600), MEDIA CAMHB, plate type 384well, NBS, CORNING #3640
Description: Antibacterial activity against Klebsiella pneumoniae MDR ATCC 70063 (CO-ADD:GN_003); MIC in CAMBH media using NBS plates, by OD(600)

Acinetobacter baumannii = assay: microbe, parasite or virus in culture; conditions: ATCC 19606, 18 h, ASSAY_TEST Inhibition of Bacterial Growth, detection method Absorption (OD600), MEDIA CAMHB, plate type 384well, NBS, CORNING #3640
Description: Antibacterial activity against Acinetobacter baumannii ATCC 19606 (CO-ADD:GN_034); MIC in CAMBH media using NBS plates, by OD600

Description for Cryptococcus neoformans: Antifungal activity against Cryptococcus neoformans H99 ATCC 208821 (CO-ADD:FG_002); MIC in YNB media using NBS plates, by Resazurin OD(600-570)

MIC (Pseudomonas aeruginosa [1]) | MIC (Candida albicans) | MIC (Cryptococcus neoformans) | MIC (Pseudomonas aeruginosa [2]) | MIC (Escherichia coli) | MIC (Staphylococcus aureus) | MIC (Klebsiella pneumoniae) | MIC (Acinetobacter baumannii) | SMILES | CC50 (HEK293)
> 20 µM | > 20 µM | > 20 µM | > 20 µM | > 20 µM | > 20 µM | > 20 µM | > 20 µM | O=P(O)(O)C(CCCc1cccc(Oc2ccccc2)c1)S(=O)(=O)O (stereo not given) | > 20 µM
> 20 µM | > 20 µM | > 20 µM | > 20 µM | > 20 µM | > 20 µM | > 20 µM | > 20 µM | COc1ccccc1NC(=O)c1ccccc1Sc1ccc([N+](=O)[O-])cc1 | > 20 µM
> 20 µM | > 20 µM | > 20 µM | > 20 µM | > 20 µM | > 20 µM | > 20 µM | > 20 µM | Cc1[nH]c2ccccc2c1CC(=O)N[C@@H](Cc1ccccc1)C(=O)N(C)c1ccccc1 | > 20 µM
> 20 µM | > 20 µM | > 20 µM | > 20 µM | > 20 µM | > 20 µM | > 20 µM | > 20 µM | CC(C)Nc1ncnc2c1cnn2-c1ccc(Cl)cc1 | > 20 µM
> 20 µM | > 20 µM | > 20 µM | > 20 µM | > 20 µM | > 20 µM | > 20 µM | > 20 µM | CCOc1ccc(C(=O)NCCc2ccccc2)cc1 | > 20 µM
> 20 µM | > 20 µM | > 20 µM | > 20 µM | > 20 µM | > 20 µM | > 20 µM | > 20 µM | N#Cc1cc([N+](=O)[O-])ccc1Oc1ccccc1Cl | > 20 µM
> 20 µM | > 20 µM | > 20 µM | > 20 µM | > 20 µM | > 20 µM | > 20 µM | > 20 µM | CS(=O)(=O)c1ccc(Oc2ccc(Cl)cc2)cc1 | > 20 µM
5 µM (≈ 1.48 µg/mL) | > 20 µM | > 20 µM | 10 µM (≈ 2.95 µg/mL) | 2.5 µM (≈ 0.738 µg/mL) | 20 µM (≈ 5.9 µg/mL) | > 20 µM | > 20 µM | COc1c(F)c(F)cc2c(=O)c(C(=O)O)cn(C3CC3)c12 | > 20 µM
> 20 µM | > 20 µM | > 20 µM | > 20 µM | > 20 µM | > 20 µM | > 20 µM | > 20 µM | Oc1cccc(C(Nc2nccs2)c2ccc3cccnc3c2O)c1 (stereo not given) | 6.67 µM
> 20 µM | > 20 µM | > 20 µM | > 20 µM | > 20 µM | > 20 µM | > 20 µM | > 20 µM | O=C(c1ccc(F)cc1)N1CCN2C(=O)c3ccccc3C12c1ccccc1 (stereo not given) | > 20 µM
> 20 µM | > 20 µM | > 20 µM | > 20 µM | > 20 µM | > 20 µM | > 20 µM | > 20 µM | Nc1cnn(C2OC(CO)C(O)C2O)c(=O)n1 (stereo not given) | > 20 µM
> 20 µM | > 20 µM | > 20 µM | > 20 µM | > 20 µM | > 20 µM | > 20 µM | > 20 µM | CC(=O)N1c2ccccc2NC2=C(C(=O)CC(C)(C)C2)C1c1ccc(OCc2ccccc2)cc1 (stereo not given) | > 20 µM
> 20 µM | > 20 µM | > 20 µM | > 20 µM | > 20 µM | > 20 µM | > 20 µM | > 20 µM | CCc1c(O)nc2ccc(F)cc2c1OCC1CCC1 | > 20 µM
> 20 µM | > 20 µM | > 20 µM | > 20 µM | > 20 µM | > 20 µM | > 20 µM | > 20 µM | CCOc1noc2cc(OCCC3CCN(c4ccc(C)nn4)CC3)ccc12 | > 20 µM
> 20 µM | > 20 µM | > 20 µM | > 20 µM | > 20 µM | > 20 µM | > 20 µM | > 20 µM | Nc1cc(-c2nc3ccccc3[nH]2)n[nH]c1=O | > 20 µM
> 20 µM | > 20 µM | > 20 µM | 10 µM (≈ 2.93 µg/mL) | 2.5 µM (≈ 0.733 µg/mL) | ≤ 0.156 µM | > 20 µM | > 20 µM | CCc1cc(O)c(Oc2ccc(C(N)=O)cc2F)cc1F | > 20 µM
> 20 µM | 20 µM (≈ 7.06 µg/mL) | 10 µM (≈ 3.53 µg/mL) | > 20 µM | > 20 µM | > 20 µM | > 20 µM | > 20 µM | O=C(CC1Sc2ncnn2C1=O)Nc1ccc(Br)cc1 (stereo not given) | > 20 µM
> 20 µM | > 20 µM | > 20 µM | > 20 µM | > 20 µM | > 20 µM | > 20 µM | > 20 µM | Nc1nc(O)c2ncn([C@@H]3O[C@H](CO)[C@@H](O)[C@H]3F)c2n1 | > 20 µM
> 20 µM | > 20 µM | > 20 µM | > 20 µM | > 20 µM | > 20 µM | > 20 µM | > 20 µM | Cc1cc(C)n2nc(C(=O)NS(=O)(=O)c3c(C)cccc3OC(F)(F)F)nc2n1 | > 20 µM
> 20 µM | > 20 µM | > 20 µM | > 20 µM | > 20 µM | > 20 µM | > 20 µM | > 20 µM | O=C(Cn1cnc2ccccc2c1=O)Nc1ccccc1 | > 20 µM
> 20 µM | > 20 µM | > 20 µM | > 20 µM | > 20 µM | 20 µM (≈ 7.31 µg/mL) | > 20 µM | > 20 µM | CCC(C)NCC(O)Cn1c2ccc(Cl)cc2c2cc(Cl)ccc21 (stereo not given) | 6.84 µM
> 20 µM | > 20 µM | > 20 µM | > 20 µM | > 20 µM | > 20 µM | > 20 µM | > 20 µM | O=S(=O)(NCB(O)O)c1ccc(-c2nnn[nH]2)cc1C(F)(F)F | > 20 µM
> 20 µM | > 20 µM | > 20 µM | > 20 µM | > 20 µM | > 20 µM | > 20 µM | > 20 µM | CCc1ccccc1OCCN1CCCCCC1 | > 20 µM
> 20 µM | > 20 µM | > 20 µM | > 20 µM | > 20 µM | > 20 µM | > 20 µM | > 20 µM | NC1C2CC3CC(C2)CC1C3 (stereo not given) | > 20 µM
> 20 µM | > 20 µM | > 20 µM | > 20 µM | > 20 µM | > 20 µM | > 20 µM | > 20 µM | O=C(/C=C/n1cnc(-c2cc(C(F)(F)F)cc(C(F)(F)F)c2)n1)NNc1cnccn1 | > 20 µM
> 20 µM | > 20 µM | > 20 µM | > 20 µM | > 20 µM | > 20 µM | > 20 µM | > 20 µM | Nc1nc(O)c(Br)c(-c2cccc(Cl)c2)n1 | > 20 µM
> 20 µM | > 20 µM | > 20 µM | > 20 µM | > 20 µM | > 20 µM | > 20 µM | > 20 µM | CCNC(=O)Nc1cn2c(-c3ncc(CC)cn3)cc(-c3cccnc3)cc2n1 | > 20 µM

SMILES | MIC (Pseudomonas aeruginosa [1]) | MIC (Candida albicans) | MIC (Cryptococcus neoformans) | MIC (Pseudomonas aeruginosa [2]) | MIC (Escherichia coli) | MIC (Staphylococcus aureus) | MIC (Klebsiella pneumoniae) | MIC (Acinetobacter baumannii) | CC50 (HEK293)
Nc1c(C(=O)NCc2ccco2)c2nc3ccccc3nc2n1CCN1CCCCC1 | > 20 µM | > 20 µM | > 20 µM | > 20 µM | > 20 µM | > 20 µM | > 20 µM | > 20 µM | > 20 µM
COc1cc(C(C)(C)CCCC(C)C)cc(OC)c1OC | > 20 µM | > 20 µM | > 20 µM | > 20 µM | > 20 µM | > 20 µM | > 20 µM | > 20 µM | > 20 µM
CC(C)N(c1cc(-c2ccccc2)sc1C(=O)O)C(=O)[C@H]1CC[C@H](C)CC1 | > 20 µM | > 20 µM | > 20 µM | > 20 µM | > 20 µM | > 20 µM | > 20 µM | > 20 µM | > 20 µM
